Data from a melting point compilation (Tetko et al.; mined from patent text by program, amines drawn as free bases though some values may be those of a salt).

| SMILES | melting point |
| --- | --- |
| N#CN=C(N)NCc1ccc2c(c1)Nc1nccnc1S2 | 246 to 248 °C |
| CC(C)(C)[Si](C)(C)C(F)(F)F | 52 to 54 °C |
| CCCCc1nc2c(N)nc3ccccc3c2n1CCCCNS(=O)(=O)c1cccs1 | 138 to 142 °C |
| O=C(c1ccc(Cl)cc1)c1ccc(CSC(F)F)cc1 | 34 to 35 °C |
| Cc1ccc2cccc(OCc3c(Cl)ccc(S(=O)(=O)N(C)CCCCCC(=O)O)c3Cl)c2n1 | 98 to 102 °C |
| O=C(NCCO)NC1CCCc2ccccc21 (stereo not drawn) | 146 to 149 °C |
| CCCCN(C)c1nccc2ccc(C(=O)N[C@@H](Cc3cc(F)cc(F)c3)[C@H](O)CNCc3cccc(CC)c3)cc12 | 120 to 121 °C |
| O=C(O)CCCC1=C(n2nc(-c3c(-c4ccccc4)nn4ccccc34)ccc2=O)CCCC1 | 145 to 147 °C |
| COC(=O)c1ccc2ncc(C(=S)NCc3ccc(Cl)cc3)c(O)c2c1 | 259 to 261 °C |
| CC(C)(C)OC(=O)N[C@@H](COS(C)(=O)=O)c1ccccc1 | 108 to 109 °C |
| COc1cccc2c1nc(C(F)F)n2-c1nc(N2CCOCC2)c2cnn(C3CCN(S(=O)(=O)CCl)CC3)c2n1 | 250 to 253 °C |
| COc1cc2ncc(C#N)c(Nc3ccc(F)c(Cl)c3)c2cc1NC(=O)C=CCN1CCC(N2CCCCC2)CC1 | 140 to 144 °C |
| CCOC(=O)c1cc(C#N)ccn1 | 170 to 172 °C |
| COc1ccc2cc(-c3noc4cc(OC)ccc34)ccc2c1 | 141 to 143 °C |
| O=C(O)C1CCN(Cc2ccc(Cl)c(Cl)c2)CC1 | 232 °C |
| O=C(O)C=Cc1ccc2ccccc2c1 | 207 to 208 °C |
| Cc1ccc(Cc2cnc(NCCCCc3ncc(Cl)cc3C)[nH]c2=O)cn1 | 140 to 141 °C |
| Cc1cc(-c2ccc(S(C)(=O)=O)cc2)n(-c2ccc(C)c(C)c2)c1 | 126 to 128 °C |
| COC(=O)c1ccc(OC)c(Nc2cc(Cl)cc(Cl)c2)c1 | 134 to 135 °C |
| CC(C)c1ccc2c(c1)C=C(C(=O)O)CC2 | 160 to 162 °C |
| CCOC(=O)/C=C/c1cnn(C)c1-c1cccnc1 | 159 to 160 °C |
| Nc1ccc(C2CCOCC2)cc1 | 122 °C |
| COC(=O)c1cc(C(=O)O)nn1C | 175 °C |
| COc1ccc2c(c1)c(Cc1nc(-c3csc4ccccc34)cs1)c(C)n2C(=O)c1ccc(Cl)cc1 | 68 to 72 °C |
| C[C@H]1C(=O)Nc2c(N)cc(Cl)cc2N1C(=O)OCc1ccccc1 | 152 to 154 °C |

| SMILES | melting point |
| --- | --- |
| CC(C)COc1ccc(Br)cc1N(Cc1ccc(N(C)C)cc1)C(=O)C1CCCc2ccccc21 (stereo not drawn) | 176 to 178 °C |
| N=C(N)NCCCOc1ccc2c(c1)N(Cc1ccccc1)C(=O)C(CC(=O)O)C2 (stereo not drawn) | 172 to 173 °C |
| O=C(c1ccc(-c2ccn(C(=O)c3ccc(Cl)cc3Cl)n2)cc1)N1Cc2cccn2Cc2ccccc21 | 180 to 182 °C |
| CCNc1c(-c2ccccc2C)nc2c3cc(OC)ccc3ccn12 | 153 to 154 °C |
| CC[C@H](CC(=O)NC(=O)OC)Nc1ccc(C(F)(F)F)cc1 | 142 °C |
| O=C(Nc1ccc(OC(F)(F)F)cc1)c1ccccc1NCc1ccc(=O)[nH]c1 | 189 °C |
| Fc1cccc(F)c1Cn1c(-c2ccccc2)nc2ccccc21 | 163 °C |
| O=c1ccc(C(F)(F)F)cn1Cc1ccccc1NCCCl | 93.5 to 95 °C |
| CCOC(=O)NC(C)COc1ccc(Oc2ccc(F)cc2)cc1 (stereo not drawn) | 55 to 56 °C |
| CNc1ccc([N+](=O)[O-])c(C(=O)NCC2CCN(C(c3ccccc3)c3ccccc3)CC2)c1 | 185 °C |
| CC(C#Cc1cccc(Oc2ccccc2)c1)N(O)C(N)=O (stereo not drawn) | 110 to 115 °C |
| CC(=O)NC[C@H]1CN(c2ccc(N3CCC(O)(CN=[N+]=[N-])CC3)c(F)c2)C(=O)O1 | 146 to 149 °C |
| CN(C)c1nc(O)cc(O)n1 | > 300 °C |
| NC(=O)c1cccc(Oc2ccccc2)c1 | 127 to 128 °C |
| NC(=S)C(c1ccccc1)c1cccnn1 (stereo not drawn) | 161 to 163 °C |
| Brc1c(OCc2ccccc2)cccc1C1OCCCO1 | 73 to 74 °C |
| O=C(NCC1CCN(C[C@H]2COc3ccc(Cl)cc3O2)CC1)c1cccc2cccnc12 | 51 to 54 °C |
| O=C(O)c1cc(C(F)(F)F)ccc1Sc1ccccc1 | 140 to 145 °C |
| CC(C)CCNc1ccccc1NCC12CC3CC(CC(C3)C1)C2 | 64 to 65 °C |
| CN1C(=O)CCC2(C)C3CCC4(C)C(OCC(=O)O)CCC4C3CCC12 (stereo not drawn) | 180 to 184 °C |
| CC(O)(C(=O)Nc1cc(S(=O)(=O)c2ccccc2)ccc1Cl)C(F)(F)F (stereo not drawn) | 79 to 80 °C |
| CCc1nc2c(C)cc(C)nc2n1-c1ccc(CCNC(=O)NS(=O)(=O)c2cc3ccccc3s2)cc1 | 128 to 130 °C |
| COc1cc(OCc2cccnc2)ccc1/C=C/c1cc(/C=C/c2c[nH]c3ccccc23)n[nH]1 | 129 to 137 °C |
| CC1(C)Cc2c(Cl)c(N)cc(C(=O)O)c2O1 | 185 to 187 °C |
| CCOC(=O)c1sc(Oc2ccccc2)c2c1CCCC2=O | 125 to 127 °C |

| SMILES | melting point |
| --- | --- |
| CN(CCN(C)c1ccc([N+](=O)[O-])cc1)c1ccncc1 | 126 to 127 °C |
| Cc1nc(N2CCN(Cc3cccc4cccnc34)C2=O)sc1C(=O)NCc1cccnc1 | 225 to 228 °C |
| O=C1c2ccccc2-c2[nH]c(=O)c(-c3ccccc3)nc21 | > 300 °C |
| O=c1[nH]c2cccc3c2n1CCC(NCCO)C3O (stereo not drawn) | 220 °C |
| CCC(CC)Oc1nc(C)nc(Nc2c(C)cc(C)cc2C)c1CO | 121 to 123 °C |
| CC1(C)CCC(C)(C)c2cc(-c3cc(-c4ccc(C(=O)O)cc4)ccc3OCCCCO)ccc21 | 235 °C |
| Cc1nnc(-c2ccc3occ(-c4ccc(S(=O)(=O)CF)cc4)c3c2)o1 | 191 to 192 °C |
| Cc1cc([N+](=O)[O-])c(C)cc1Cc1cccc(C(F)(F)F)c1 | 75 to 77 °C |
| C[C@@H](c1ccccc1)n1c(O)nc2c(N)nc3cccnc3c21 | 241 to 243 °C |
| O=Cc1c[nH]c2c1ccc1c2[nH]c2cc(Cl)cc(Cl)c21 | > 250 °C |
| O=C(c1ccccc1CBr)c1ccccc1CBr | 113 to 114 °C |
| Cc1nn(Cc2ccccc2)c2c1c(=O)n(-c1ccccc1)c1ncccc21 | 274 to 276 °C |
| C#Cc1cccc(N2C(=O)c3ccccc3C2=O)c1 | 197 to 198 °C |
| O=C1OCCN1CCN1C(=O)C2(COc3cc4c(cc32)CCO4)c2ccccc21 (stereo not drawn) | 185 to 186 °C |
| COc1ccc(CC2CCN(C(=O)C(=O)Nc3ccc(NS(C)(=O)=O)cc3)CC2)cc1 | 206 to 208 °C |
| N#Cc1cnc2cc(/C=C/CCCCN3CCOCC3)ccc2c1Nc1ccc(Cl)cc1Cl | 139 to 140 °C |
| Cc1ccc(-c2c(CNC(=O)OC(C)(C)C)n(CC(C)C)c(=O)c3ccc(O)cc23)cc1 | 233 to 234 °C |
| O=c1[nH]c(=S)[nH]cc1CCCc1ccccc1 | 180 to 182 °C |
| CCSC/C=C\c1cc(F)c2ncc(C(=O)NCc3ccc(Cl)cc3)c(O)c2c1 | 203 to 205 °C |
| O=C(c1ccc2n1Cc1ccccc1N(S(=O)(=O)c1ccc(Br)cc1)C2)C(Cl)(Cl)Cl | 182 to 183 °C |
| CCOC(=O)c1ccc(OCc2nc(-c3ccccc3)oc2C)c(OC)c1 | 103 to 104 °C |
| CC(=O)NC[C@H]1CN(c2cc(F)c(N3CCC4(CC3)CO4)c(F)c2)C(=O)O1 | 160 to 162 °C |
| COC(=O)c1ccc(N)cc1S(=O)(=O)NC(C)(C)C | 198 to 199 °C |
